In patent US20030104974A1, “Dual inhibitorsof PDE 7 and PDE 4” (priority 2001, published 2003):
Like-named read-outs stand apart in the source and are kept apart here.

What was measured:
[1] = system: Lipopolysaccharide (LPS) induced tumor necrosis factor (TNF) production; assay: LPS induced TNF production in mice (Examples I-1, I-2); type: in vivo; settings: for inhibited TNF production: Example I-2; for reduction in serum TNF: Example I-1
Method: Mice were exposed to lipopolysaccharide to induce production of tumor necrosis factor as described by Cornwell, et. al. (Lipopolysaccharide, but not lethal infection, releases tumor necrosis factor in mice. Cornwell, R. D.; Golenbock, D. T.; Proctor, R. A. Adv.; Exp. Med. Biol. (1990), 256(Endotoxin), 585-8.). The mice were divided in to groups of eight animals each. All animals received an intraperitoneal (IP) injection of 50 μg/kg of LPS. The vehicle control group of animals received 0.2 mL of a vehicle of tween80 (5%), 95% ethanol (5%) and water 90%, sixty minutes prior to administration of LPS, and an IP injection of 0.2 mL of water fifteen minutes prior to administration of LPS. […] A group of mice (F1 group) were administered 0.2 mL of a vehicle of tween80 (5%), 95% ethanol (5%) and water 90%, sixty minutes prior to administration of LPS, and Example F1, at a dose of 7.5 mg/kg, IP in water, fifteen minutes prior to administration of LPS. […] A group of mice (dexamethasone group) were administered a 5 mg/kg dose of dexamethasone in a vehicle of tween80 (5%), 95% ethanol (5%) and water 90%, sixty minutes prior to administration of LPS, and 0.2 mL of water IP, fifteen minutes prior to administration of LPS.
Cilomilast inhibited TNF production by 56% (p<0.05). […] Finally the dexamethasone control inhibited TNF production 94%.

PDE1 = assay: SPA assay, PDE1 (3H-cyclic GMP substrate, calmodulin); type: biochemical; settings: bovine PDE1, calmodulin
Method: (§1) Inhibition of PDE activity in Hut78 cell lysate was determined using an SPA specific for cAMP (Amersham Pharmacia Biotech, Buckinghamshire, UK) according to the manufacturers instructions with minor modifications. Enzyme assays were performed at room temperature in the presence of 50 mM Tris HCl, pH7.5, containing 8.3 mM MgCl2, 1.7 mM EGTA and 0.5 mg/mL BSA. Each assay was performed in a 100 μL reaction volume in 96 well microtitre plates containing the above buffer, 0.3 ul of Hut78 cell lysate treated with 2 uM Zardaverine to inhibit PDE3 and PDE4, 0.05 uCi of [5′,8-3H] Adenosine 3′,5′-cyclic phosphate as an ammonium salt for 20 min. The reaction was terminated by the addition of 50 μl PDE SPA beads (1 mg) water with 10 mM cold cAMP (Sigma, St. Louis Mo.). The reaction mix was allowed to settle for 20 minutes before counting in a Top Count-NXT scintillation counter (Packard BioScience, Meriden, Conn.). […] The following PDEs/activators and enzyme sources were used: PDE1, bovine (Sigma St Louis), calmodulin; PDE2, rat kidney, cGMP; PDE3, human platelet; PDE4, rat kidney; PDE5, human platelet, and PDE6, bovine retina.
(§2) The LPS human PBMC TNF production assay was performed as described above.

[2] = system: LPS human PBMC TNF production; assay: LPS human PBMC TNF production assay; type: cell-based; settings: LPS 6.25 ng/ml, 4 h
Method: Peripheral blood mononuclear cells (PBMC) were isolated from whole blood by density gradient centrifugation over Lymphoprep, 1.077. Cells were plated into 96 well U-bottom plates at 2.5×10^5 cells/well in 10% FBS RPMI 1640 (Life Technologies/Gibco-BRL) containing 10 ug/ml anti-CD3 (G19-4, Bristol-Myers Squibb P.R.I., Princeton, N.J.) and lug/ml anti-CD28 (9.3, Bristol-Myers Squibb P.R.I.) in the presence and absence of inhibitors. DMSO (used as a solvent for inhibitors) was added to the medium at 0.1% final concentration. The total volume per well was 200 μL. Cells were incubated at 37 C. 5% CO2 for 3 days, at which time 0.5 μCi of ^3H-thymidine was added to each well. Six hours following the addition of ^3H-thmidine, the plates were harvested onto filter plates, 30 ul EcoLite scintillant (ICN, Costa Mesa, Calif.) was added per well, and plates read on a Top Count-NXT scintillation counter.
The ability of compounds to inhibit the production and secretion of TNFα from leukocytes was performed using either PBMC (obtained as described above) or the THP-1 cell line as a source of monocytes. Compounds were diluted in RPMI 1640 supplemented with 10% FBS and DMSO at a final concentration of 0.2%. […] Soluble TNFα was detected by ELISA developed by R&D Systems (Minneapolis, Minn.) according to the manufacturers instructions. […]

PDE5 = biological target: T1, PDE5 (Homo sapiens, UniProt O76074); assay: SPA assay, PDE5 (human platelet, 3H-cyclic GMP substrate); type: biochemical
T1 construct: PDE5, human platelet; from tissue; host or cells: human platelet
Method: as §1, §2

PDE4 = assay: SPA assay, PDE4 (rat kidney); type: biochemical
Method: as §1, §2

PDE7 = biological target: T2, PDE7 (Homo sapiens, UniProt Q13946); assay: SPA assay for cAMP, PDE7 in Hut78 cell lysate treated with Zardaverine; type: biochemical; settings: for IC50: Hut78 cell lysate, SPA
T2 construct: endogenous in cells; host or cells: Hut78 cells (crude lysate)
T2 sequence (Q13946 whole entry): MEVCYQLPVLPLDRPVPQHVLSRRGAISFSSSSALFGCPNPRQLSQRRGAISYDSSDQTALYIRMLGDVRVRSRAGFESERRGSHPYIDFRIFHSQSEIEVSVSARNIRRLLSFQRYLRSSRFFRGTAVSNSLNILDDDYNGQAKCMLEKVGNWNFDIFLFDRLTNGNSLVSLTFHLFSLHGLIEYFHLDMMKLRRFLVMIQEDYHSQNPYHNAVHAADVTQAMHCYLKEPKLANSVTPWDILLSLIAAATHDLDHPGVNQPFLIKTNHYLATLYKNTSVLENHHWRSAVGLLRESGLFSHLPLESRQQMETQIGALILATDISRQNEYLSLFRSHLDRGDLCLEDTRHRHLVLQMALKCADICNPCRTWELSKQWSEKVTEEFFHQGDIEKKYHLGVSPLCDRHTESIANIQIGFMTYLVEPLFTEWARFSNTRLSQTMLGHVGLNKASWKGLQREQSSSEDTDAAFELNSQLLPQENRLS
Method: Hut78 cells were grown in 10% FCS in Iscoves Modified Dulbecco's Medium (Gibco BRL-Life Technologies, Grand Island, N.Y.) with antibiotics. Cells were centrifuged and resuspended in four volumes of [40 mM Tris (pH 7.5)/50 μM EDTA/200 μM PMSF with a cocktail of Protease inhibitors (Boehringher Mannheim, Indianapolis, Ind.)] at 4 C. Cells were homogenized using a Virtis homogenizer, and the lysate was centrifuged twice for 15 min at 15,000×g. Glycerol was added to a final volume of 50% for storage at −20C.
as §1, §2

PDE6 = biological target: T3, PDE6 (Bos taurus, UniProt P11541+P23439); assay: SPA assay, PDE6 (bovine retina, 3H-cyclic GMP substrate); type: biochemical
T3 construct: PDE6, bovine retina; from tissue; host or cells: bovine retina
T3 sequence (P11541 2-856 limits assumed): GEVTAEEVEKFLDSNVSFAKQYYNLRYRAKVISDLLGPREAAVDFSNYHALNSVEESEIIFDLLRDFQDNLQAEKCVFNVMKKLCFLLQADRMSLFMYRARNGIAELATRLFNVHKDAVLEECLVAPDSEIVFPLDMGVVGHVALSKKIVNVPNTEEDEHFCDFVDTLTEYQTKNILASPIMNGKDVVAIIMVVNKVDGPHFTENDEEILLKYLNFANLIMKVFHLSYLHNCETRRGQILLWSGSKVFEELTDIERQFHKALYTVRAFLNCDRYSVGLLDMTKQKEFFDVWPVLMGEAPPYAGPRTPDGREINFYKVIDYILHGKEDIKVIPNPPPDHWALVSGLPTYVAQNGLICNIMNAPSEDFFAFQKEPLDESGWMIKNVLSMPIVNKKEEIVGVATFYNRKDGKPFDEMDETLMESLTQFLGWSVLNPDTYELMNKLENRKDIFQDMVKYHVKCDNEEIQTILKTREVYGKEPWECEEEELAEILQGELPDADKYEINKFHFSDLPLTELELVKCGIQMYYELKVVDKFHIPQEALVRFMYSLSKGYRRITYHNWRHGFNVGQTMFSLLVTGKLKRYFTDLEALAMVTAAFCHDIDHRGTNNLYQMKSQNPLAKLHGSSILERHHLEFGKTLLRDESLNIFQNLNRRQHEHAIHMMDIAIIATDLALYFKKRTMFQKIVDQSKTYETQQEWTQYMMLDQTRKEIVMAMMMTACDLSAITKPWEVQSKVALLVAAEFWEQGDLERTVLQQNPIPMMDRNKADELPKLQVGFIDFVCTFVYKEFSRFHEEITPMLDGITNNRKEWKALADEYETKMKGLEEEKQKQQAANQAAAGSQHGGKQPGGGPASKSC
T3 sequence (P23439 2-850 limits assumed): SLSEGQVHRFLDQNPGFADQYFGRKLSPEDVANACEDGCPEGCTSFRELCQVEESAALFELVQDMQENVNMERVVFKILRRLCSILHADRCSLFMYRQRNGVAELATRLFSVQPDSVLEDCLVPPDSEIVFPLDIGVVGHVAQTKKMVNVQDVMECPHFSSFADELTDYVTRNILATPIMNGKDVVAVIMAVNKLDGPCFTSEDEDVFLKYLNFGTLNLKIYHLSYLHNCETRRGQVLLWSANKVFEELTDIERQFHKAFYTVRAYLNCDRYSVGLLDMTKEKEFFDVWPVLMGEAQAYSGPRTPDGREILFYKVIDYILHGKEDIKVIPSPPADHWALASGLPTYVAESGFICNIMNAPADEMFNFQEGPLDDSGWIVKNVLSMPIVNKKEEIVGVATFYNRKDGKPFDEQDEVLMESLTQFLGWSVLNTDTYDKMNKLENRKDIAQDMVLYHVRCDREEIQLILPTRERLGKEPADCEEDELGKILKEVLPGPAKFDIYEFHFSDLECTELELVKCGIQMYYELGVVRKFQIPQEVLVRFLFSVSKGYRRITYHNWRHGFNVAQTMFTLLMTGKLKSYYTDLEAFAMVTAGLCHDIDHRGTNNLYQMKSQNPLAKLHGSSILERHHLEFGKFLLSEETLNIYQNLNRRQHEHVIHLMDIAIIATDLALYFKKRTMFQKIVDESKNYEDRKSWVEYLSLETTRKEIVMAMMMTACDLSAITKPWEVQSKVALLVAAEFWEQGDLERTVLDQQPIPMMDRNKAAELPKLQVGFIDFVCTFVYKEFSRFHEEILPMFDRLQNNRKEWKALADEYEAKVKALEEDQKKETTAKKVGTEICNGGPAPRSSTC
Method: as §1, §2

PDE3 = biological target: T4, PDE3 (Homo sapiens, UniProt Q14432); assay: SPA assay, PDE3 (human platelet); type: biochemical
T4 construct: PDE3, human platelet; from tissue; host or cells: human platelet
T4 sequence (Q14432 whole entry): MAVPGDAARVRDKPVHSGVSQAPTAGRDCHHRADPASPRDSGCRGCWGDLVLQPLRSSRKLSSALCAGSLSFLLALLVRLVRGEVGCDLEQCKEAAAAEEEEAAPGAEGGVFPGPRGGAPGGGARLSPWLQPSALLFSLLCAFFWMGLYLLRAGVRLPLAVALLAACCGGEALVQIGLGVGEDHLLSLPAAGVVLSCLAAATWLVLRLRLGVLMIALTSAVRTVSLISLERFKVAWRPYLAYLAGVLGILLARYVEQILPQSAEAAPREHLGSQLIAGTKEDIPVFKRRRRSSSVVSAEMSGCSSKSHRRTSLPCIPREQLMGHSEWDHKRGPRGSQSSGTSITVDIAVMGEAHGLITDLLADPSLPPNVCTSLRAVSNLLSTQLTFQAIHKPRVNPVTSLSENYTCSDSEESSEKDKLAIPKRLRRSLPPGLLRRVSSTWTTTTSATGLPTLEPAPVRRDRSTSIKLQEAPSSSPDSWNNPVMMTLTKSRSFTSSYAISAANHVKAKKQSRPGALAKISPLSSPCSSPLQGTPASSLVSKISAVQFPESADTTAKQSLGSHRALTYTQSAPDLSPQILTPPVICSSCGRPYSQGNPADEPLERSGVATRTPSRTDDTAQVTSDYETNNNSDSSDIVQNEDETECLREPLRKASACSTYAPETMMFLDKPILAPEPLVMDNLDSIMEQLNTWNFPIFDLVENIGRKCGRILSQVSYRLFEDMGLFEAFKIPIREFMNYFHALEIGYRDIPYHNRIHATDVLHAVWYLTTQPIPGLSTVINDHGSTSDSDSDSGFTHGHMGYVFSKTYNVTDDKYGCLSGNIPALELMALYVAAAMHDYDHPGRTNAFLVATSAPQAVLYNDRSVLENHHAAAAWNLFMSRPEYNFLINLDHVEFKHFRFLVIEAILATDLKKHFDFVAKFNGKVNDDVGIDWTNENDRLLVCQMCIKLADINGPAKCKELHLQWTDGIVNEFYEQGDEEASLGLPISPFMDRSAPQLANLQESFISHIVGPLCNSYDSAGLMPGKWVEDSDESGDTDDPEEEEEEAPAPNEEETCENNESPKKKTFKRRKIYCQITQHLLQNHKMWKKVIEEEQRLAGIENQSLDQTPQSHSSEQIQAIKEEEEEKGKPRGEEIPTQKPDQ
Method: as §1, §2

[3] = Pharmacokinetic data in mice for Example F1 and rolipram; type: in vivo; settings: for Cmax: mouse, plasma
[4] = mice, F1 30 mg/kg IP, rolipram 10 mg orally

SMILES	IC50 (PDE1) [µM]	IC50 [2] [µM]	IC50 (PDE5) [µM]	IC50 (PDE4) [µM]	IC50 (PDE7) [µM]	IC50 (PDE6) [µM]	IC50 (PDE3) [µM]	other results
CCOC(=O)c1sc(Nc2nc(N3CCC(O)CC3)cc(N3CCC(O)CC3)n2)nc1C [Example F2, 2-[4,6-Bis-(4-hydroxy-piperidin-1-yl)-pyrimidin-2-ylamino]-4-methyl-thiazole-5-carboxylic Acid Ethyl Ester]	4.8	> 25	0.72	3.2	0.06	0.73	20	inhibited TNF production ([1]; F2 30 mg/kg, not statistically significant): 33.7%
COc1ccc(C2CNC(=O)C2)cc1OC1CCCC1 (centres unmarked) [rolipram, reference compound]	–	–	–	–	> 10	–	–	reduction in serum TNF ([1]; rolipram 5 mg/kg oral 60 min prior to LPS 50 μg/kg IP, vs vehicle): 54%; Cmax of Rolipram reduced by a factor by co-administration with F1 [3, 4]: 3 factor; Cmax ([3]; po, 10 mg): 290 nM
C[C@@H]1C[C@H]2[C@@H]3CCC4=CC(=O)C=C[C@]4(C)[C@@]3(F)[C@@H](O)C[C@]2(C)[C@@]1(O)C(=O)CO [dexamethasone]	–	–	–	–	–	–	–	reduction in serum TNF ([1]; dexamethasone 5 mg/kg 60 min prior to LPS): 93%; inhibited TNF production ([1]; dexamethasone control): 94%
CCOC(=O)c1sc(Nc2nc(NCc3cc(OC)c(OC)c(OC)c3)cc(N3CCC(N(C)C)CC3)n2)nc1C [Example F1, 2-[[4-[4-(Dimethylamino)-1-piperidinyl]-6-[[(3,4,5-trimethoxphenyl)methyl]amino]-2-pyrimidinyl]amino]-4-methyl-5-thiazolecarboxylic Acid, Ethyl Ester]	4.3	–	2.8	3	0.03	7.5	32	reduction in serum TNF ([1]; F1 7.5 mg/kg IP 15 min prior to LPS 50 μg/kg IP, vs vehicle): 52%; selective for PDE7 over PDE4 (PDE7; ratio of PDE4 and PDE7 IC50): 100 fold; plasma concentration of F1 compared with its PDE4 IC50 ([3]; mice, F1 30 mg/kg): does not reach the PDE4 IC50; change of Cmax of F1 by co-administration of rolipram [3, 4]: essentially unchanged; Cmax ([3]; mice, F1 30 mg/kg IP alone, read-out: Cmax, F1): 2200 nM
COc1ccc([C@]2(C#N)CC[C@@H](C(=O)O)CC2)cc1OC1CCCC1 [cilomilast, reference compound]	3.4	0.43	> 10	0.03	> 50	–	> 10	inhibited TNF production ([1]; cilomilast 1 mg/kg): 56%
